In PubChem BioAssay AID248 (DTP/NCI, 2004):
Where “and” joins values, the source holds several entries; their conditions need not be identical. Identical values can stand only once. Toxic doses and inconclusive results are not listed. Rule as the data show it: active = T/C of 150% or more; inactive = T/C below 125%.

System: L1210 leukemia ip in BDF1 mice, survival T/C
Assay: NCI In Vivo Anticancer Drug Screen. Data for tumor model L1210 Leukemia (intraperitoneal) in B6D2F1 (BDF1) mice
Settings: endpoint: mean survival time, higher = longer survival
Summary of the method: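 Mice bearing the transplanted tumor received compound or vehicle. Survival of the treated group was divided by that of the vehicle-treated control group to give the ratio.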

[1] = dose: 100.0 mg/kg/injection, schedule: Q04DX002 (ip), vehicle: Klucel (hydroxypropylcellulose) (HPC)
[2] = dose: 50.0 mg/kg/injection, schedule: Q01DX009 (ip), vehicle: saline with Tween-80
[3] = dose: 100.0 mg/kg/injection, schedule: Q01DX009 (ip), vehicle: saline with Tween-80
[4] = dose: 200.0 mg/kg/injection, schedule: Q01DX009 (ip), vehicle: saline with Tween-80
[5] = dose: 100.0 mg/kg/injection, schedule: Q04DX003 (ip), vehicle: saline with Tween-80
[6] = dose: 100.0 mg/kg/injection, schedule: Q01DX001 (ip), vehicle: saline with Tween-80
[7] = dose: 100.0 mg/kg/injection, schedule: Q01DX001 (ip), vehicle: saline
[8] = dose: 50.0 mg/kg/injection, schedule: Q01DX009 (ip), vehicle: saline
[9] = dose: 100.0 mg/kg/injection, schedule: Q01DX009 (ip), vehicle: saline

Measured: T/C

C=C(C)COc1ccccc1
inactive: dose: 100.0 mg/kg/injection, schedule: Q01DX005 (ip), vehicle: Klucel (hydroxypropylcellulose) (HPC) 101 % of control | dose: 100.0 mg/kg/injection, schedule: Q01DX009 (ip), vehicle: Klucel (hydroxypropylcellulose) (HPC) 100 % of control | [1] 100 % of control | dose: 200.0 mg/kg/injection, schedule: Q01DX005 (ip), vehicle: Klucel (hydroxypropylcellulose) (HPC) 108 % of control | dose: 200.0 mg/kg/injection, schedule: Q01DX009 (ip), vehicle: Klucel (hydroxypropylcellulose) (HPC) 102 % of control | dose: 200.0 mg/kg/injection, schedule: Q04DX002 (ip), vehicle: Klucel (hydroxypropylcellulose) (HPC) 100 % of control | dose: 400.0 mg/kg/injection, schedule: Q01DX005 (ip), vehicle: Klucel (hydroxypropylcellulose) (HPC) 97 % of control | dose: 400.0 mg/kg/injection, schedule: Q04DX002 (ip), vehicle: Klucel (hydroxypropylcellulose) (HPC) 107 % of control

CC12CCC(O)CC1=CCC1C2CCC2(C)C1CCC2(O)C#CCN(CCCl)CCCl (stereo not drawn)
inactive: dose: 50.0 mg/kg/injection, schedule: Q04DX003 (sc), vehicle: steriod suspending solution 93 % of control | dose: 100.0 mg/kg/injection, schedule: Q04DX003 (sc), vehicle: steriod suspending solution 112 % of control | dose: 200.0 mg/kg/injection, schedule: Q04DX003 (sc), vehicle: steriod suspending solution 100 % of control | dose: 400.0 mg/kg/injection, schedule: Q04DX003 (sc), vehicle: steriod suspending solution 99 % of control

CCCCCCCCCCCCCCn1cnc2ncnc(Cl)c21
inactive: dose: 12.5 mg/kg/injection, schedule: Q01DX005 (ip), vehicle: other 104 % of control | dose: 25.0 mg/kg/injection, schedule: Q01DX005 (ip), vehicle: other 104 % of control | dose: 50.0 mg/kg/injection, schedule: Q01DX005 (ip), vehicle: other 103 % of control | dose: 100.0 mg/kg/injection, schedule: Q01DX005 (ip), vehicle: other 101 % of control | dose: 200.0 mg/kg/injection, schedule: Q01DX005 (ip), vehicle: other 96 % of control

CCOC(=O)C(C/C=C/c1ccccc1)C(C)=O (stereo not drawn)
inactive: dose: 100.0 mg/kg/injection, schedule: Q04DX002 (ip), vehicle: saline with Tween-80 90 % of control | dose: 200.0 mg/kg/injection, schedule: Q04DX002 (ip), vehicle: saline with Tween-80 97 % of control | dose: 400.0 mg/kg/injection, schedule: Q04DX002 (ip), vehicle: saline with Tween-80 90 % of control

COc1cc2c(cc1O)CCCC(C)(C)C2=O
inactive: [2] 104 % of control | [3] 93 % of control | [4] 90 % of control

Cc1cc(C)cc(NC(=O)c2ccccc2N)c1
inactive: [5] 96 % of control | dose: 200.0 mg/kg/injection, schedule: Q04DX003 (ip), vehicle: saline with Tween-80 91 % of control | dose: 400.0 mg/kg/injection, schedule: Q04DX003 (ip), vehicle: saline with Tween-80 93 % of control

CCN(CC)CCOC(=O)/C=C/c1ccc([N+](=O)[O-])o1
inactive: dose: 50.0 mg/kg/injection, schedule: Q01DX Z (ip), vehicle: saline 103 % of control | dose: 75.0 mg/kg/injection, schedule: Q01DX Z (ip), vehicle: saline 109 % of control | dose: 113.0 mg/kg/injection, schedule: Q01DX Z (ip), vehicle: saline 112 % of control

c1ccc(N/N=C2/CCN3CCCc4cccc2c43)cc1
inactive: dose: 3.0 mg/kg/injection, schedule: Q01DX009 (ip), vehicle: DMSO 98 % of control | dose: 6.0 mg/kg/injection, schedule: Q01DX009 (ip), vehicle: DMSO 96 % of control | dose: 12.0 mg/kg/injection, schedule: Q01DX009 (ip), vehicle: DMSO 95 % of control | dose: 12.5 mg/kg/injection, schedule: Q04DX003 (ip), vehicle: DMSO 101 % of control | dose: 25.0 mg/kg/injection, schedule: Q01DX009 (ip), vehicle: DMSO 89 % of control | dose: 25.0 mg/kg/injection, schedule: Q04DX003 (ip), vehicle: DMSO 100 % of control | dose: 50.0 mg/kg/injection, schedule: Q04DX003 (ip), vehicle: DMSO 104 % of control | dose: 100.0 mg/kg/injection, schedule: Q04DX003 (ip), vehicle: gum acacia 95 % of control

CS/C(N)=N/N=C(\N)SC
inactive: dose: 25.0 mg/kg/injection, schedule: Q01DX009 (ip), vehicle: saline with Tween-80 101 % of control | dose: 25.0 mg/kg/injection, schedule: Q04DX003 (ip), vehicle: saline with Tween-80 91 % of control | [2] 95 % of control | dose: 50.0 mg/kg/injection, schedule: Q04DX003 (ip), vehicle: saline with Tween-80 90 % of control | [6] 102 % of control | [5] 111 % of control

c1ccc2c(C3CCCCN3)c[nH]c2c1 (stereo not drawn)
inactive: dose: 12.5 mg/kg/injection, schedule: Q01DX009 (ip), vehicle: saline 88 % of control | dose: 25.0 mg/kg/injection, schedule: Q01DX009 (ip), vehicle: saline 90 % of control | dose: 25.0 mg/kg/injection, schedule: Q04DX003 (ip), vehicle: saline 103 % of control | dose: 50.0 mg/kg/injection, schedule: Q04DX003 (ip), vehicle: saline 92 % of control | [7] 97 % of control

CCC1([N+](=O)[O-])COCOC1
inactive: dose: 6.25 mg/kg/injection, schedule: Q04DX003 (ip), vehicle: Klucel (hydroxypropylcellulose) (HPC) 96 % of control | dose: 12.5 mg/kg/injection, schedule: Q04DX003 (ip), vehicle: Klucel (hydroxypropylcellulose) (HPC) 111 % of control | dose: 25.0 mg/kg/injection, schedule: Q04DX003 (ip), vehicle: Klucel (hydroxypropylcellulose) (HPC) 96 % of control and 111 % of control

O=NN(CCCl)C(=O)C1CCCCC1
inactive: dose: 4.5 mg/kg/injection, schedule: Q01DX001 (ip), vehicle: carboxymethylcellulose (CMC) 110 % of control | dose: 9.0 mg/kg/injection, schedule: Q01DX001 (ip), vehicle: carboxymethylcellulose (CMC) 112 % of control | dose: 18.0 mg/kg/injection, schedule: Q01DX001 (ip), vehicle: carboxymethylcellulose (CMC) 113 % of control | dose: 26.0 mg/kg/injection, schedule: Q01DX001 (ip), vehicle: carboxymethylcellulose (CMC) 112 % of control | dose: 40.0 mg/kg/injection, schedule: Q01DX001 (ip), vehicle: carboxymethylcellulose (CMC) 108 % of control | dose: 60.0 mg/kg/injection, schedule: Q01DX001 (ip), vehicle: carboxymethylcellulose (CMC) 110 % of control | dose: 93.0 mg/kg/injection, schedule: Q01DX001 (ip), vehicle: carboxymethylcellulose (CMC) 113 % of control | dose: 187.0 mg/kg/injection, schedule: Q01DX001 (ip), vehicle: carboxymethylcellulose (CMC) 116 % of control

C1CC2CC1C1CNCC21 (stereo not drawn)
inactive: dose: 5.0 mg/kg/injection, schedule: Q01DX001 (ip), vehicle: saline 105 % of control | dose: 10.0 mg/kg/injection, schedule: Q01DX001 (ip), vehicle: saline 97 % of control | dose: 20.0 mg/kg/injection, schedule: Q01DX001 (ip), vehicle: saline 105 % of control | dose: 40.0 mg/kg/injection, schedule: Q01DX001 (ip), vehicle: saline 100 % of control | dose: 50.0 mg/kg/injection, schedule: Q04DX002 (ip), vehicle: Klucel (hydroxypropylcellulose) (HPC) 97 % of control | dose: 80.0 mg/kg/injection, schedule: Q01DX001 (ip), vehicle: saline 91 % of control | [1] 97 % of control

NCCCOc1ccc([N+](=O)[O-])cc1Cl
inactive: [8] 106 % of control | dose: 75.0 mg/kg/injection, schedule: Q01DX001 (ip), vehicle: saline 98 % of control | [9] 110 % of control | dose: 100.0 mg/kg/injection, schedule: Q04DX003 (ip), vehicle: saline 111 % of control | dose: 150.0 mg/kg/injection, schedule: Q01DX001 (ip), vehicle: saline 98 % of control | dose: 200.0 mg/kg/injection, schedule: Q01DX009 (ip), vehicle: saline 101 % of control | dose: 200.0 mg/kg/injection, schedule: Q04DX003 (ip), vehicle: saline 101 % of control

CSCSCC(CO)NCc1ccccc1 (stereo not drawn)
inactive: [8] 110 % of control | [7] 97 % of control | [9] 104 % of control | dose: 200.0 mg/kg/injection, schedule: Q01DX001 (ip), vehicle: saline 100 % of control

Cc1nc(N)[nH]c(=O)c1CCCNC(=O)c1ccc(C(=O)O)cc1
inactive: dose: 25.0 mg/kg/injection, schedule: Q01DX001 (ip), vehicle: saline with Tween-80 90 % of control | dose: 50.0 mg/kg/injection, schedule: Q01DX001 (ip), vehicle: saline with Tween-80 97 % of control | [6] 93 % of control

CCOC(=O)C(C)C(C)(O)c1ccccc1 (stereo not drawn)
inactive: [3] 95 % of control | [4] 109 % of control | dose: 400.0 mg/kg/injection, schedule: Q01DX009 (ip), vehicle: saline with Tween-80 96 % of control
